Results on 18 molecules are retold here after patent US8513260B2, “Pyrazinylpyrazoles” (Bayer CropScience AG, priority 2009, dated 2013).

The structures appear in SMILES notation.

Data set [1] has as its system red spider mite (Tetranychus urticae). The data set can be described thus: Tetranychus test, OP-resistant (TETRUR spray treatment). Particulars: bean leaf discs, after 6 days; for pest or weed control at 500 g/ha: Tetranychus urticae, foliar, 144 h, read-out: efficacy. The class given is in vivo. The method, then:
Tetranychus Test, OP-Resistant (TETRUR Spray Treatment)
Solvent: 78.0 parts by weight of acetone • • 1.5 parts by weight of dimethylformamide
Emulsifier: 0.5 part by weight of alkylaryl polyglycol ether
To prepare an appropriate active ingredient preparation, 1 part by weight of active ingredient is mixed with the stated amounts of solvent and emulsifier, and the concentrate is diluted with emulsifier-containing water to the desired concentration. Discs of bean leaves (Phaseolus vulgaris) infested by all stages of the red spider mite (Tetranychus urticae) are sprayed with an active ingredient preparation of the desired concentration. After 6 days, the efficacy in % is determined. 100% means that all spider mites have been killed; 0% means that none of the spider mites have been killed.

A further data set deals with adult Musca domestica. The experiment in a line: Musca domestica test. To be noted: after 2 days. The class given is in vivo. How it is done: Musca domestica Test Solvent: dimethyl sulphoxide To prepare an appropriate active ingredient formulation, 10 mg of active ingredient are mixed with 0.5 ml of dimethyl sulphoxide and the concentrate is diluted with water to the desired concentration. Vessels containing a sponge treated with the active ingredient preparation of the desired concentration are populated with adult Musca domestica. After 2 days, the kill in % is determined. 100% means that all of the flies have been killed; 0% means that none of the flies have been killed.

Data set [2] has as its system unfed adult fleas (Ctenocephalides felis). The experiment in a line: Ctenocephalides felis test (CTECFE). The format is in vivo. Particulars: 100 ppm in citrated cow's blood; after 2 days. The method, then:
Ctenocephalides felis Test ([…]) Solvent: 1 part by weight of dimethyl sulphoxide For the purpose of preparing an appropriate active ingredient formulation, 10 mg of active ingredient are mixed with 0.5 ml of dimethyl sulphoxide. A portion of the concentrate is diluted with citrated cow's blood and the desired concentration is established. About 20 unfed adult fleas (Ctenocephalides felis) are introduced into a chamber closed at the top and bottom with gauze. A metal cylinder, the bottom of which is closed with Parafilm, is placed onto the chamber. The cylinder contains the blood/active ingredient preparation, which can be imbibed by the fleas through the Parafilm membrane. After 2 days, the kill in % is determined. 100% means that all fleas have been killed; 0% means that none of the fleas have been killed.

Data set [3] concerns larvae of the mustard beetle (Phaedon cochleariae). The data set can be described thus: Phaedon test (PHAECO spray treatment). The format is in vivo. To be noted: Chinese cabbage discs, after 7 days; for efficacy: 500 g/ha; for pest or weed control at 500 g/ha: Phaedon cochleariae, 168 h, read-out: efficacy. How it is done:
Phaedon Test ([…] Spray Treatment) Solvent: 78.0 parts by weight of acetone • • 1.5 parts by weight of dimethylformamide Emulsifier: 0.5 part by weight of alkylaryl polyglycol ether To prepare an appropriate active ingredient preparation, 1 part by weight of active ingredient is mixed with the stated amounts of solvent and emulsifier, and the concentrate is diluted with emulsifier-containing water to the desired concentration. Discs of Chinese cabbage (Brassica pekinensis) are sprayed with an active ingredient preparation of the desired concentration and, after drying, populated with larvae of the mustard beetle (Phaedon cochleariae). After 7 days, the efficacy in % is determined. 100% means that all beetle larvae have been killed; 0% means that none of the beetle larvae have been killed.

Data set [4] concerns caterpillars of the armyworm (Spodoptera frugiperda). The experiment in a line: Spodoptera frugiperda test (SPODFR spray treatment). The class given is in vivo. To be noted: maize leaf discs, after 7 days; for efficacy: 500 g/ha; for pest or weed control at 500 g/ha: Spodoptera frugiperda, foliar, 168 h, read-out: efficacy. The method, then:
Spodoptera frugiperda Test (SPODFR Spray Treatment) Solvent: 78.0 parts by weight of acetone • • 1.5 parts by weight of dimethylformamide Emulsifier: 0.5 part by weight of alkylaryl polyglycol ether To prepare an appropriate active ingredient preparation, 1 part by weight of active ingredient is mixed with the stated amounts of solvent and emulsifier, and the concentrate is diluted with emulsifier-containing water to the desired concentration. Discs of maize leaves (Zea mays) are sprayed with an active ingredient preparation of the desired concentration and, after drying, populated with caterpillars of the armyworm (Spodoptera frugiperda). After 7 days, the efficacy in % is determined. 100% means that all caterpillars have been killed; 0% means that none of the caterpillars have been killed.

The test system of a further data set is Boophilus microplus. The data set can be described thus: Boophilus microplus test (BOOPMI injection). The format is in vivo. Particulars: 20 μg animal; injection into the abdomen; after 7 days, laying of fertile eggs. The method, then: Boophilus microplus Test (BOOPMI Injection) Solvent: dimethyl sulphoxide To prepare an appropriate active ingredient formulation, 10 mg of active ingredient are mixed with 0.5 ml of solvent and the concentrate is diluted with solvent to the desired concentration. The active ingredient solution is injected into the abdomen (Boophilus microplus), and the animals are transferred into dishes and stored in a climate-controlled room. The efficacy is assessed by laying of fertile eggs. After 7 days, the efficacy in % is determined. 100% means that none of the ticks has laid any fertile eggs.

Data set [5] has as its system green peach aphid (Myzus persicae). The data set can be described thus: Myzus test (MYZUPE spray treatment). The class given is in vivo. Particulars: Chinese cabbage discs, after 6 days; for efficacy: 500 g/ha; for pest or weed control at 500 g/ha: Myzus persicae, 144 h, read-out: efficacy. The method, then:
Myzus Test (MYZUPE Spray Treatment) Solvent: 78 parts by weight of acetone • • 1.5 parts by weight of dimethylformamide Emulsifier: 0.5 part by weight of alkylaryl polyglycol ether To prepare an appropriate active ingredient preparation, 1 part by weight of active ingredient is mixed with the stated amounts of solvent and emulsifier, and the concentrate is diluted with emulsifier-containing water to the desired concentration. Discs of Chinese cabbage (Brassica pekinensis) infested by all stages of the green peach aphid (Myzus persicae) are sprayed with an active ingredient preparation of the desired concentration. After 6 days, the efficacy in % is determined. 100% means that all of the aphids have been destroyed; 0% means that none of the aphids have been destroyed.

Data set [6] relates to adult engorged Boophilus microplus females of the SP-resistant Parkhurst strain. The data set can be described thus: Boophilus microplus (dip). Particulars: 100 ppm, after 7 days, laying of fertile eggs. The class given is in vivo. The method, then: Boophilus microplus (dip)
Test animals: adult engorged Boophilus microplus females of the SP-resistant Parkhurst strain
Solvent: dimethyl sulphoxide
10 mg of active ingredient are dissolved in 0.5 ml of dimethyl sulphoxide. For the purpose of preparing a suitable formulation, the active ingredient solution is diluted with water to the concentration desired in each case. This active ingredient preparation is pipetted into tubes. 8-10 ticks are transferred into a further tube with holes. The tube is immersed into the active ingredient formulation, and all ticks are completely wetted. After the liquid has run out, the ticks are transferred onto filter discs in plastic dishes and stored in a climate-controlled room. The activity is assessed after 7 days by laying of fertile eggs. Eggs whose fertility is not outwardly visible are stored in glass tubes in a climate-controlled cabinet until the larvae hatch. Efficacy of 100% means that none of the ticks has laid any fertile eggs.

The nature of data set [7]: logP by HPLC on reversed-phase columns (C 18), EEC Directive 79/831 Annex V.A8. The class given is physicochemical. Particulars: reversed-phase C18 HPLC column, pH 2.7, * LC-MS, acidic range pH 2.7, 0.1% aqueous formic acid and acetonitrile; read-out: log P. The text has this: [table] The calibration is effected with unbranched alkan-2-ones (having 3 to 16 carbon atoms) with known logP values (logP values determined on the basis of the retention times by linear interpolation between two successive alkanones).

For the molecule `COc1nccnc1-n1nc(C(F)(F)F)c(-c2cc(Br)c3c(c2)OCCCO3)c1N` [Ex. 131], the efficacy (in data set [1] (500 g/ha); in [3]; in data set [4]; in the data set on Boophilus microplus) was 100% each time. Besides, the “efficacy (kill)” value (in the data set with adult Musca domestica (100 ppm); in data set [2]) was 100% in each case.
`COc1nccnc1-n1nc(C(F)(F)F)c(-c2cc(Cl)c3c(c2)OCCCO3)c1N` [Ex. 136]: the “efficacy (kill)” value in data set [2] is 100%. The efficacy (in [3]; in the data set with Boophilus microplus) was 100% each time.
On to `COc1ccc(CNc2c(-c3cc(Cl)cc(C(F)(F)F)c3)c(C(F)(F)F)nn2-c2nccnc2OC)cc1` [Ex. 41], for which, in [2], the “efficacy (kill)” value is given as 80%. For the same molecule, the efficacy in data set [3] is reported as 100%; in data set [5], 90%.
Consider `COc1nccnc1-n1nc(C(F)(F)F)c(-c2cc(Cl)c3c(c2)COCO3)c1N` [Ex. 135], for which, in data set [2], the “efficacy (kill)” value was determined as 100%. Moreover, the values for the efficacy (in data set [3]; in data set [4]; in the data set on Boophilus microplus) were 100%, 80% and 100%, respectively.
As for `COc1cc(-c2c(C(F)(F)F)nn(-c3nccnc3OC)c2N)cc(C(F)(F)F)c1OC` [Ex. 89], the “efficacy (kill)” value in the data set with adult Musca domestica (100 ppm) amounted to 80%; in data set [2] it was 100%. Besides, the efficacy (in data set [3]; in [4]; in the data set with Boophilus microplus) was 100% throughout.
Regarding `COc1nccnc1-n1nc(C(F)(F)F)c(-c2cc(Cl)cc(C(F)(F)F)c2)c1N` [Ex. 10], the figures for the “efficacy (kill)” value (in the data set on adult Musca domestica (100 ppm); in data set [2]) were 100% and 90%, respectively. In the data set with Boophilus microplus, this molecule came in with an efficacy of 100%.
Turning to `CCOc1nccnc1-n1nc(C(F)(F)F)c(-c2cc(Cl)cc(C(F)(F)F)c2)c1N` [Ex. 12], the efficacy in data set [1] (500 g/ha) was found to be 90%; in data set [3], 100%; with Boophilus microplus, 100%. For the same molecule, the “efficacy (kill)” value in the data set with adult Musca domestica (100 ppm) was found to be 100%; in data set [2], 90%.
As to `COc1nccnc1-n1nc(C(C)(F)F)c(-c2ccc(Cl)c(C(F)(F)F)c2)c1N` [Ex. 20], the efficacy (in data set [6]; in [1] (500 g/ha); in data set [3]; in data set [4]; in the data set on Boophilus microplus; in data set [5]) was 100% in each case.
Consider `C=Cc1nn(-c2nccnc2OC)c(N)c1-c1cc(Cl)cc(C(F)(F)F)c1` [Ex. 9], for which the efficacy (in data set [1] (500 g/ha); in data set [3]; in data set [4]; in the data set with Boophilus microplus; in data set [5]) was 100% throughout.
For the molecule `COc1nccnc1-n1nc(C(F)(F)F)c(-c2cc(Cl)c3c(c2)OCCO3)c1N` [Ex. 133], the efficacy is listed as 95% in data set [6]; 90% in [1] (100 g/ha); 100% in [3]; 100% in [4]; 100% in the data set with Boophilus microplus. The “efficacy (kill)” value is 80% in the data set with adult Musca domestica (20 ppm) and 100% in data set [2].
Consider `C=Cc1nn(-c2nccnc2OC)c(N)c1-c1cc(Cl)cc(Cl)c1` [Ex. 8], for which the efficacy in [6] is recorded as 90%; with Boophilus microplus it was 100%; in data set [5] it was 100%.
Regarding `COc1nccnc1-n1nc(C(F)(F)C(F)(F)F)c(-c2cc(F)cc(C(F)(F)F)c2)c1N` [Ex. 21], the efficacy (in data set [1] (500 g/ha); in data set [3]; in [4]; with Boophilus microplus; in data set [5]) was 100% throughout. Also, the “efficacy (kill)” value with adult Musca domestica (100 ppm) came to 100%.
Take `COc1nccnc1-n1nc(C(F)(F)F)c(-c2ccc(Cl)c(C(F)(F)F)c2)c1N` [Ex. 18]: the efficacy in data set [6] came to 100%; in data set [1] (500 g/ha) it was 100%; in data set [3] it was 100%; in data set [4], 83%; with Boophilus microplus, 100%; in data set [5], 90%.
With `COc1nccnc1-n1nc(C(C)C)c(-c2cc(Cl)c3c(c2)OCO3)c1N` [Ex. 77], the pest or weed control at 500 g/ha in data set [1] (500 g/ha), in [3], in data set [4] and in data set [5] was 100% throughout. In addition, the chromatographic logP in data set [7] was 2.96.
For the molecule `CCOc1nccnc1-n1nc(C(F)(F)F)c(-c2cc(Cl)c3c(c2)OCO3)c1N` [Ex. 171], the pest or weed control at 500 g/ha in [1] (500 g/ha), in [3], in data set [4] and in [5] was 100% in each case. In data set [7], the chromatographic logP was 3.48.
Take `COc1nccnc1-n1nc(C(F)(F)C(F)(F)C(F)(F)F)c(-c2cc(Cl)cc(C(F)(F)F)c2)c1N` [Ex. 46]: the efficacy in data set [1] (500 g/ha) was 80%; in data set [3], 100%; in [4], 100%; in the data set with Boophilus microplus, 100%; in data set [5], 80%. For the same molecule, the “efficacy (kill)” value in data set [2] turned out to be 80%.
For `CCOc1nccnc1-n1nc(C(F)(F)F)c(-c2cc(F)c3c(c2)OCO3)c1N` [Ex. 175], the pest or weed control at 500 g/ha in data set [1] (500 g/ha), in data set [3], in [4] and in data set [5] was 100% each time. In addition, the chromatographic logP in data set [7] was 3.27.
For `COc1nccnc1-n1nc(C(F)(F)F)c(-c2cc(Cl)cc(Cl)c2)c1N` [Ex. 6], the “efficacy (kill)” value turned out to be 80% in the data set on adult Musca domestica (100 ppm) and 90% in data set [2]. Also, the efficacy came out at 100% in [3], 83% in data set [4] and 100% in the data set on Boophilus microplus.
